From patent US20230285504A1, “INHIBITION OF REPERFUSION INJURY WITH A PSD-95 INHIBITOR” (NONO INC., priority 2020, published 2023)
Entries after “also recorded” stand apart in the source; their conditions may differ. No end group written: not given here.

Columns and labels:
[1] = Plasma half-life in human; type: in vivo; details: intravenous, human equivalent concentrations, read-out: half-life of nerinetide
Source text: Tat-NR2B9c has a plasma half-life in human plasma of about ten minutes. […] Alteplase (a recombinant form of tPA) has a half-life in human plasma of only about five minutes. But more significant for present purposes is the half-life of plasmin, which is induced by alteplase and other thrombolytic agents and is responsible for cleavage of Tat-NR2B9c. Plasmin has been reported to have a half-life in human plasma of about 4-8 hr.

[2] = PK dose-separation study of nerinetide and alteplase in macaques; type: in vivo, cynomolgus macaques (Macaca fascicularis); details: macaque
Protocol: We conducted further PK studies to probe the necessary dose-separation interval to mitigate degradation. These studies were conducted in cynomolgus macaques (Macaca fascicularis) to maximize their relevance to humans. Nerinetide was given as a 10-minute intravenous infusion at a dose of 2.6 mg/kg. This dosing regimen was neuroprotective in macaques exposed to stroke by LVO (Cook et al., Nature 483, 213-217 (2012)) and was used in both the Phase 2 ENACT trial (Lancet Neurol 11, 942-950 (2012)) and the ESCAPE-NA1 trial (Lancet 395, 878-887 (2020)). We examined the scenarios in which alteplase administration was started simultaneously with the nerinetide infusion start, at the end of the 10-minute nerinetide infusion, or 10 minutes after the end of nerinetide infusion. Alteplase (1 mg/kg) was administered through a separate intravenous line as a 10% bolus, followed by an infusion of the remaining 90% over 1 hour, as per its clinical use.

[3] = system: patients with acute ischemic stroke (AIS) due to a large vessel arterial occlusion selected for endovascular thrombectomy; experiment: ESCAPE-NA1 phase 3 trial, exploratory re-analyses of dosing time (mRS 0-2 at 90 days); type: in vivo, human
Protocol: The details of the ESCAPE-NA1 methodology are published^2. In-brief, the trial was conducted at 48 sites globally. Adult patients aged 18 or greater with a disabling ischemic stroke (baseline National Institutes of Health Stroke Scale (NIHSS) score^11>5), CT evidence of a small-to-moderate ischemic core (ASPECTS 5-10)^12 and CTA evidence of LVO with a moderate-to-good collateral circulation^13,14 were enrolled in a window of up to 12 hours after the onset of stroke symptoms (last-seen-well time). Enrollment was stratified on the use of intravenous alteplase (yes/no) and declared initial thrombectomy device (stent-retriever or aspiration device). Randomized minimization was conducted within strata aimed to achieve distribution balance with regard to age, sex, baseline NIHSS, site of arterial occlusion, baseline ASPECTS and clinical site. Nerinetide and placebo vials were visually identical other than a unique vial number so that all trial personnel and patients were fully masked to treatment allocation.
After qualifying imaging, patients were treated with rapid EVT using currently available devices. Patients received intravenous alteplase^15 according to usual care following national or regional guidelines, before or during EVT, at a primary hospital prior to transfer or at the endovascular center. Treatment with alteplase was not a requirement for the study and interpretation of treatment guidelines was at the discretion of the treating team. Patients received trial drug (1:1 nerinetide:placebo), as a single dose of 2.6 mg/kg to a maximum dose of 270 mg as soon as possible after randomization. Time targets were imaging to randomization 30 minutes, imaging to study drug administration 60 minutes, and imaging to arterial access/puncture 60 minutes. Targets from imaging to reperfusion were 90th percentile 90 minutes and a median at 75 minutes.^16,17 Times (min) for workflow are summarized in Table 3.
The primary outcome was good outcome at 90 days as defined by a score of 0-2 on the modified Rankin scale (mRS) (range, 0 [no symptoms] to 6 [death]) for the assessment of neurologic functional disability^18-20. Secondary 90 day efficacy outcomes included neurological outcome as defined by the NIHSS of 0-2, functional independence in activities of daily living as defined by a Barthel Index score of 95, and mortality rates. Tertiary outcomes included assessments of stroke volumes on 24-hour imaging (MR or CT brain). Imaging interpretation was conducted at a central core laboratory and clinical data were verified by independent monitors. Infarct volumes were measured by summation of manual planimetric demarcation of infarct on axial imaging (636/1099 (57.9%) on CT and 463/1099 (42.1%) on MRI).
Analyses of efficacy in this stratum were conducted as per the primary analysis of ESCAPE-NA1 on the intention-to-treat (ITT) population, and comprised a logistic regression providing an adjusted estimate of effect size including treatment, the stratification variable of declared initial endovascular approach, and the baseline covariates of age, sex, baseline NIHSS score, baseline ASPECTS, occlusion location and clinical site. Analyses of secondary efficacy outcomes were conducted similarly to the primary analysis. To determine the impact of time metrics of interest on the efficacy of nerinetide (e.g., Onset to randomization, CT to reperfusion, Randomization to reperfusion, and Drug administration to reperfusion), the metrics variables were included in the regression analysis that was otherwise conducted like the primary analysis. Deceased patients were included in the ITT population with a mRS score of 6, a Barthel Index of 0 and NIHSS of 42. Missing primary outcomes (n=9) were imputed as the worst possible score, counted as poor outcome (mRS 3-6 dichotomy) and for mortality analysis, imputed as deaths. All analyses were performed with the use of STATA software (v16.0).

[4] = Intrinsic fibrinolytic activity
[5] = molecular target: protein-protein interactions of PSD-95 with N-Methyl-D-Aspartate glutamate receptors (NMDARs); details: read-out: IC50 perturbing PSD-95 interaction with NMDARs; cited from earlier work
[6] = system: embolic middle cerebral artery occlusion (eMCAO)
Protocol: Nerinetide (7.6 mg/kg) was administered as an intravenous bolus injection either 30 minutes before, or simultaneously with, the onset of a 60-minute infusion of rt-PA (5.4 mg/kg with a 10% bolus followed by 90% over 60 minutes). […] Experimental timeline. […] Hemispheric Infarct volume measurements 24 hours after eMCAo. […] Percentage of hemispheric brain swelling 24 hours after eMCAo and (D). Neurological scores 24 hours after eMCAo. Treatments were administered intravenously at the times indicated in (A). Bars represent mean±SD, with all individual data points plotted. Significant differences (in B) and (in C) are indicated with an asterisk when compared to the control group/nerinetide alone or with a number sign when compare to the thrombolytic agent (one-way ANOVA post hoc Tukey's correction for multiple comparisons test, *P<0.01 or #P <0.01, respectively) N=12-15 animals/group. Significant differences (in D) are indicated with an asterisk when compared to the control group/nerinetide alone or with a number sign when compare to the thrombolytic agent (Kruskal-Wallis analysis of variance on ranks with a post-hoc Dunn's correction for multiple comparisons test, *P<0.01 or #P<0.01, respectively).
To test this, male Sprague-Dawley rats (10-12 weeks old; 270-310 g; Charles River, Montreal, QC, Canada) were subjected to embolic middle cerebral artery occlusion (eMCAO), produced by the introduction of an autologous blood thrombus into the middle cerebral artery. Reperfusion was achieved by treatment with intravenous alteplase at a total dose of 5.4 mg/kg beginning at 90 minutes after ischemia onset. Alteplase was administered using the human injection protocol in which 10% of the total dose is given as a bolus, with the remainder 90% of the dose being given over a 60-minute infusion. The dose of alteplase was 6 times the human dose, in anticipation that the rat fibrinolytic system may be less sensitive to human recombinant tPA. […] Nerinetide was administered either 30 minutes prior to, or concurrently with, the start of the alteplase administration (FIG. 7A) at a dose of 7.6 mg/kg. […] Infarct volumes, hemispheric swelling and neurological scores were evaluated at 24 hours.

[7] = alteplase started at the end of the 10-minute nerinetide infusion
[8] = nerinetide 2.6 mg/kg 10-minute iv infusion, alteplase 1 mg/kg started simultaneously
[9] = no-alteplase, drug started 22 or more minutes from initial reperfusion
[10] = no-alteplase, long CT to reperfusion interval (>=73.5 minutes)
[11] = no-alteplase, study drug started less than 5 minutes after groin puncture
[12] = nerinetide alone 7.6 mg/kg, 60 minutes after eMCAO, 24 hours
[13] = nerinetide at 60 minutes followed by alteplase 30 minutes later, 24 hours

In the case of YGRKKRRQRRRKLSSIESDV [nerinetide], the half-life [1] is reported as 5 to 10 min, the “degradation of Cmax or AUC of nerinetide by alteplase” value ([2]; alteplase 10 minutes after the end of the 10-min nerinetide infusion) is reported as “eliminated degradation of Cmax or AUC by alteplase to within the margin of measurement error; also recorded: substantially reduces cleavage of nerinetide” and the “reduction in the AUC of nerinetide” value [2, 7] is reported as 32.3%. The “reduction of the Cmax of nerinetide” value [2, 7] was 23.1%, the “reduction in the AUC of nerinetide” value [2, 8] was 53.9% and the “reduction of the Cmax of nerinetide” value [2, 8] was 47.4%. For the same sequence, the “adj. OR for favorable outcome (mRS 0-2 at 90 days)” value ([3]; no-alteplase stratum, all time windows of 12 h enrollment, nerinetide 2.6 mg/kg vs placebo) was 1.757, the “absolute effect size of nerinetide over placebo” value [3, 9] was 16.25% and the relative effect [3, 9] was 50.0%. For the same sequence, the “adj OR for functional outcome (mRS 0-2)” value [3, 10] was 5.100, the relative effect [3, 10] was 43.3% and the “unadjusted absolute effect size” value [3, 10] was 16.52%. The “adj OR for mRS(0-2)” value ([3]; no-alteplase, long interval drug infusion start to initial reperfusion (>=22 minutes)) was 2.715, the “adj OR for functional outcome (mRS 0-2)” value ([3]; no-alteplase, short CT to reperfusion interval (<73.5 minutes)) was 0.825 and the “adj OR for mRS(0-2)” value ([3]; no-alteplase, short interval drug infusion start to initial reperfusion (<22 minutes)) was 1.13. For the same sequence, the “adj OR, primary analysis (mRS 0-2)” value ([3]; no-alteplase, study drug more than 5 minutes after groin puncture) was 1.50, the “adj OR, primary analysis (mRS 0-2)” value ([3]; no-alteplase, study drug started at any time less than 5 minutes after groin puncture) was 2.33 and the “absolute effect size of nerinetide over placebo” value [3, 11] was 16.56%. For the same sequence, the relative effect [3, 11] was 36.1%, the absolute effect sizes ([3]; no-alteplase, treated in longer intervals from reperfusion (summary)) was “approximately 16%” and the absolute effect ([3]; whole no-alteplase stratum) was 9.65%. The intrinsic fibrinolytic activity [4] was “does not have any intrinsic fibrinolytic activity”, the IC50 [5] was 1 to 8 µM and the “beneficial effect of nerinetide on infarction volume” value ([6]; nerinetide administered concurrently with alteplase at 60 min after eMCAO) was “eliminated completely”. The infarction volume [6, 12] was 175±40 mm3, the “reduction of infarction volume” value [6, 12] was 59.2% and the infarct volume reduction ([6]; nerinetide at 60 minutes followed by alteplase 30 minutes later) was 70%. The hemispheric swelling [6, 13] was “reducing hemispheric swelling” and the neurological scores [6, 13] was “improving neurological scores”.
